Patent US10813920B2, “Drug for treating corneal endothelium by promoting cell proliferation or inhibiting cell damage” (THE DOSHISHA, priority 2013, dated 2020)

Tests used:
[1] = system: cynomolgus monkey corneal endothelial cells; assay: BrdU ELISA, concentration series, cynomolgus monkey corneal endothelial cells (Example 8); assay type: cell-based; conditions: concentration series per agent between 0.1 μM and 100 μM; 5000 cells/well; * p<0.01
Experimental: The medium was removed from a culture dish culturing cynomolgus monkey corneal endothelial cells ([…] phosphate buffer solution (Nacalai Tesque, 14249-95) heated to 37° C. in advance was added thereto and the cells were washed. This operation was repeated twice. After removing the phosphate buffer solution, 0.05% Trypsin-EDTA (Nacalai Tesque, 35554-64) was added and the cells were incubated for 10 minutes at 37° C. (5% CO2). The cells were then suspended in DMEM (Nacalai Tesque, 08456-94)+10% FBS (Biowest, S1820-500)+1% penicillin/streptomycin (P/S, Nacalai Tesque, 26252-94) and centrifuged for 3 minutes at 1200 rpm to collect the cells. A 96-well plate was treated with an FNC coating mix (50 ml ([…], catalog number: 0407). The monkey corneal endothelial cells (lot: 20120404-3L-P8) were seeded in the coated 96-well plate at a ratio of 5000 cells/well. The cells were cultured for 30 hours at 37° C. (5% CO2). After 30 hours, the medium was removed and changed to a serum free medium: DMEM+1% P/S to culture the cells for 18 hours. […] DMSO was added to the control. After 24 hours, a BrdU labeling reagent (Amersham Cell Proliferation Biotrak ELISA System, Version 2, GE Healthcare, catalog number: RPN250) was further added at a ratio of 1:1000 to the DMEM+10% FBS+1% P/S medium. […] DMSO was added to the control. After 24 hours, BrdU ELISA was carried out with Amersham Cell Proliferation Biotrak ELISA System, Version 2 (GE Healthcare, catalog number: RPN250). The absorbance at 450 nm was measured. *P<0.01, Dunnet's test, n=5. As in (1), the medium was removed from a culture dish culturing cynomolgus monkey corneal endothelial cells. A phosphate buffer solution heated to 37° C. in advance was added thereto and the cells were washed. This operation was repeated twice. After removing the phosphate buffer solution, 0.05% Trypsin-EDTA (Nacalai Tesque, 35554-64) was added and the cells were incubated for 10 minutes at 37° C. (5% CO2). The cells were then suspended in DMEM (Nacalai Tesque, 08456-94)+10% FBS (Biowest, S1820-500)+1% penicillin/streptomycin (Nacalai Tesque, catalog number: 26252-94) and centrifuged for 3 minutes at 1200 rpm to collect the cells. A 96-well plate was treated with an FNC coating mix (50 ml ([…], catalog number: 0407). Monkey corneal endothelial cells (lot: 20120404-3L-P8) were seeded in the coated 96-well plate at a ratio of 5000 cells/well. The cells were cultured for 30 hours at 37° C. (5% CO2). After 30 hours, the medium was removed and changed to a serum free medium: DMEM+1% P/S to culture the cells for 18 hours. After 18 hours, Semapimod HCl (MedKoo Biosciences, catalog number: 202590, lot number: SMC20120918) was added to the DMEM+10% FBS+1% P/S medium such that the final concentration dissolved with DMSO was 0.1, 0.3, 1, 3, or 10 μmol/l, and the cells were cultured for 24 hours. DMSO was added to the control. After 24 hours, a BrdU labeling reagent (Amersham Cell Proliferation Biotrak ELISA System, Version 2, GE Healthcare, catalog number: RPN250) was further added at a ratio of 1:1000 to the DMEM+10% FBS+1% P/S medium. Semapimod HCl was added such that the final concentration was 0.1, 0.3, 1, 3, or 10 μmol/l and the cells were cultured for 24 hours. DMSO was added to the control. After 24 hours, BrdU ELISA was carried out with Amersham Cell Proliferation Biotrak ELISA System, Version 2 (GE Healthcare, catalog number: RPN250). The absorbance at 450 nm was measured. […]

[2] = system: cultured monkey corneal endothelial cells; assay: UV-induced cell death of cultured monkey corneal endothelial cells (phase difference microscope); assay type: cell-based; conditions: UV 100 J/m^2; 9 hours after irradiation; 10 μM SB203580, 3 μM BIRB796, 1 μM PH-797804, 3 μM VX-702, 3 μM LY2228820, 3 μM TAK-715
Experimental: 1×10^5 cultured monkey corneal endothelial cells were seeded on a 12-well plate coated with an FNC Coating Mix and cultured for about 5 days until reaching confluence under the condition of 5% CO2 at 37° C.
Medium: Dulbecco's Modified Eagle Medium (DMEM, Gibco, 12320-032), 10% FBS, 1% Penicillin-Streptomycin (nacalai tesque, 26252-94)
Each inhibitor was then added at the concentration in the above-described Table and the cells were incubated for 16 hours under the condition of 5% CO2 at 37° C. The solvent of each reagent, Dimethyl Sulfoxide, Sterile-filtered (nacalai tesque, 13408-64) MSO, was added to the Control group and the UV group. Gibco DMEM, 1% P/S (penicillin/streptomycin) was used as the medium.
The cellular supernatant was then removed and the cells were irradiated with UV (100 J/m^2). After irradiation, cells were again added to a medium containing each inhibitor and cultured for 9 hours. The cell form and apoptosis were observed under a phase difference microscope.

Structure (SMILES)	BrdU uptake as a percentage with respect to the control (proliferation) [1]	Cellular disorders (cell death) induced by UV [2]
CC(C)(C)Cn1c(N)nc2ccc(-c3nc(C(C)(C)C)[nH]c3-c3ccc(F)cc3)nc21 [LY2228820, 5-(2-(tert-butyl)-5-(4-fluorophenyl)-1H-imidazole-4-yl)-3-neopentyl-3H-imidazo[4,5-b]pyridine-2-amine]	promotes proliferation	suppressed
CNC(=O)c1ccc(C)c(-n2c(C)cc(OCc3ccc(F)cc3F)c(Br)c2=O)c1 [PH-797804, 3-(3-bromo-4-((2,4-difluorobenzyl)oxy)-6-methyl-2-oxopyridine-1(2H)-yl)-N,4-dimethylbenzamide]	promotes proliferation	suppressed
Cc1ccc(-n2nc(C(C)(C)C)cc2NC(=O)Nc2ccc(OCCN3CCOCC3)c3ccccc23)cc1 [BIRB796, N-[3-tert-butyl-1-(4-methylphenyl)pyrazole-5-yl]-N′-[4-(2-morpholinoethoxy)-1-naphthyl]urea]	promotes proliferation	suppressed
CCc1nc(-c2cccc(C)c2)c(-c2ccnc(NC(=O)c3ccccc3)c2)s1 [TAK-715, 2-benzamide-4-[2-ethyl-4-(3-methylphenyl)thiazole-5-yl]pyridine]	promotes proliferation	suppressed
C[S+]([O-])c1ccc(-c2nc(-c3ccncc3)c(-c3ccc(F)cc3)[nH]2)cc1 (stereo not shown) [SB203580, 4-(4-fluorophenyl)-2-(4-methylsulfinylphenyl)-5-(4-pyridyl)-1H-imidazole]	promotes proliferation	suppressed
